Test results from US11649222B2, “Compounds” (UNIVERSITETET I OSLO, priority 2016, dated 2023).
Where a name gives a salt, the structure may show the parent alone. Read-outs that look alike come from different tables or passages of the source.

What was measured:
[1] = test system: resistant gram-negative MBL-based bacteria; test: MICx: adjuvant concentration giving carbapenem MIC ≤ 2 mg/L; assay type: cell-based; conditions: lowest concentration of compound X that results in a MIC value of ≤ 2 mg/L for carbapenem antibiotics
Method: (§1) • Plate bacterial strain(s) on appropriate media: • Gram-negative bacteria with ESBLs or carbapenemases: green agar plates with 100 mg/L ampicillin • Gram-negative bacteria without β-lactamases: green agar plates • Gram-positive bacteria (Staphylococci and Enterococci): blood agar plates • Incubate o.n. at 37° C. […] (Should be used within 15 min of preparation). • Dilute the 0.5 McFarland suspension 1:100 into MH broth. […] Plate 10 μl of the dilution on MH agar plates (×2). Incubate o.n. at 37° C., count the colonies and calculate the final CFU/ml inoculum in the plate by multiplying the average number of colonies with 10000 and divide by 2. The final inoculum should be between 3-7×10^5 CFU/ml. • Add 50 μl of the prepared bacterial suspension to each well in the microtiter plate except negative growth control. Preparation of Compounds/Antibiotics • Calculate the desired concentration-range and volume of the compounds/antibiotics in the assay. […] Dilute the stock solution in MH broth. Make subsequent 2-fold dilutions in MH broth of the desired concentrations if a concentration range is to be tested (remember the extra dilution factor in the assay plate). Always include extra volume for pipetting. Take into consideration stock solutions that are made in buffers that have an effect on bacterial growth (e.g. DMSO).

VIM-2 = VIM-2 (Escherichia coli, UniProt Q5U7L7); assay type: biochemical; conditions: purified VIM-2, PD-10 column
Method: The eluent used was Chelex-treated HEPES 50 mM buffer, pH 7.5. […] In all experiments, 16 aliquots of 250 μL were taken from the PD-10 column runsout and enzyme activity was analysed. Enzyme activity was measured by adding Nitrocefin as a reporter substrate (final concentration of 50 μM).
To investigate if more extreme time-dependent and concentration-dependent conditions could restore enzyme activity, aliquots having final concentrations of 30 nM column-treated enzyme and 1000 μM Zn^2+ on ice and at room temperature over prolonged time.

human hepG2 cells = test: In vitro toxicity in human hepG2 cells (AlamarBlue viability); assay type: cell-based
Method: For viability assays, cells were seeded in white 96-well Nunclon plates at a density of 20,000 cells/well and left overnight to adhere before experiments were conducted. Zn chelators dissolved in DMSO were added to white 96-well plates containing 20000 HepG2 cells/well at concentrations ranging from 1 to 1×10^−6 mM (max DMSO concentration never exceeded 1%) and incubated for 24 hours at 37° C. After 24 hours, AlamarBlue® cell viability reagent (Thermo Fisher, Carlsbad, USA) was added (10% final concentration) and incubated for 4 hours at 37° C.

[2] = test system: K. pneumoniae K66-45 and P. aeruginosa K34-7; test: Microbroth dilution MIC, carbapenem + inhibitor, two resistant clinical isolates; assay type: cell-based; conditions: with meropenem
Method: (§2) • Plate bacterial strain(s) on appropriate media: • Gram-negative bacteria with ESBLs or carbapenemases: green agar plates with 100 mg/L ampicillin • Gram-negative bacteria without β-lactamases: green agar plates • Gram-positive bacteria (Staphylococci and Enterococci): blood agar plates • Incubate o.n. at 37° C. Day 2: Prepare the Bacterial Inoculum: • Prepare a 0.5 McFarland suspension of bacteria in 0.85% NaCl. (Should be used within 15 min of preparation). • Dilute the 0.5 McFarland suspension 1:100 into MH broth. Check the inoculum by diluting the prepared bacterial suspension 1:100 (10 μl bacterial suspension+990 μl 0.85% NaCl). Plate 10 μl of the dilution on MH agar plates (×2). Incubate o.n. at 37° C., count the colonies and calculate the final CFU/ml inoculum in the plate by multiplying the average number of colonies with 10000 and divide by 2. The final inoculum should be between 3-7×10^5 CFU/ml. • Add 50 μl of the prepared bacterial suspension to each well in the microtiter plate except negative growth control. Preparation of Compounds/Antibiotics • Calculate the desired concentration-range and volume of the compounds/antibiotics in the assay. […] Dilute the stock solution in MH broth. Make subsequent 2-fold dilutions in MH broth of the desired concentrations if a concentration range is to be tested (remember the extra dilution factor in the assay plate). Always include extra volume for pipetting. Take into consideration stock solutions that are made in buffers that have an effect on bacterial growth (e.g. DMSO).

[3] = Solution stability on storage, measured indirectly by MIC; assay type: physicochemical; conditions: solution stored at 2-8° C.; MIC at 25 mg/L inhibitor
Description: P. aeruginosa harboring VIM-2 and K. pneumonia bearing NDM-1 was used as two indicator strains.

K. pneumoniae (VIM) = test: Microbroth dilution MIC of meropenem ± 25 mg/L inhibitor; assay type: cell-based
Method: as §2

P. stuartii (NDM) = test: as above; assay type: cell-based
Method: as §2

E. coli (VIM-1) = test: as above; assay type: cell-based
Method: as §2

E. cloacae (VIM) = test: as above; assay type: cell-based
Method: as §2

K. pneumoniae (NDM-7) = test: as above; assay type: cell-based
Method: as §2

[4] = test system: M. morganii (OXA48+ NDM-1); test: as above; assay type: cell-based
Method: as §2

K. pneumoniae (NDM) = test: as above; assay type: cell-based; conditions: K. pneumoniae NDM (several strains)
Method: as §2

P. mirabilis (NDM-1) = test: as above; assay type: cell-based
Method: as §2

C. freundii (NDM-1) = test: as above; assay type: cell-based
Method: as §2

C. freundii (NDM) = test: as above; assay type: cell-based
Method: as §2

P. stuartii (NDM-1) = test: as above; assay type: cell-based
Method: as §2

[5] = In vivo toxicity in healthy mice; design: species or system Balb/c mice; conditions: ± SEM
Method: Female Balb/c mice (4 weeks old, approximately 20 g, Charles River, L'Arbresle, France) acclimatized 4 days in the animal facility before initiation of experiments. […] Individual weights were followed four days a week. Relative weight was calculated as the ratio between the weight of the day and the weight of the first day. The protocol for experiments in mice was approved by the University of Lyon Animal Ethics Committee. Toxicity experiments were performed by Antineo (www.antineo.fr).

[6] = test system: K. pneumoniae K66-45 (NDM-1); test: Microbroth dilution MIC of carbapenem with/without inhibitor; assay type: cell-based
Method: as §1

K. pneumoniae K66-45 = assay type: cell-based; conditions: inhibitor 25 mg/L; MEM 1 mg/L
Method: After plating and grown overnight at 37° C., only single colonies, ignoring any touching the edges of the plate, were counted.
10^9 CFU K66-45 (Mueller-Hinton broth, no selection) was plated and grown overnight, 37° C. Only single colonies, ignoring any touching the edges of the plate, were counted.

neurons = conditions: Canzoniero et al.; cited from earlier work
[7] = test system: P. aeruginosa 50808021 (No MBL); test: Microbroth dilution MIC of meropenem with/without inhibitor; assay type: cell-based; conditions: inhibitor 63 mg/L
Method: as §1

[8] = test system: P. aeruginosa 50692172 (NDM-1); test: as above; assay type: cell-based; conditions: inhibitor 63 mg/L
Method: as §1

[9] = test system: K. pneumoniae 50732159 (No MBL); test: as above; assay type: cell-based; conditions: inhibitor 63 mg/L
Method: as §1

[10] = test system: P. aeruginosa K34-7 (VIM-2); test: Microbroth dilution MIC of carbapenem with/without inhibitor; assay type: cell-based; conditions: inhibitor 63 mg/L
Method: as §1

O=C(O)CN(CCN(CC(=O)O)CC(=O)O)CC(=O)O [EDTA, ethylenediaminetetra-acetic acid, reference compound]
MICx [1]: 15 µM | irreversibility of VIM-2 inhibition (VIM-2): did not inhibit VIM-2 irreversibly | IC50 (human hepG2 cells; Homo sapiens, HepG2, estimated values (footnote c), read-out: IC50h): 30 µM

COC(=O)c1ccc(CN(Cc2ccccn2)Cc2ccccn2)s1 [Example 180, Methyl 5-((bis(pyridin-2-ylmethyl)amino)methyl)thiophene-2-carboxylate]
adjuvant effect at an inhibitor concentration of 25 mg/L [2]: completely abolishes the adjuvant effect | IC50 (human hepG2 cells; Homo sapiens, HepG2, 24 h): ~80 µM

CN(C[C@H](O)[C@@H](O)[C@H](O)[C@H](O)CO)C(=O)c1ccc(CN(Cc2ccccn2)Cc2ccccn2)s1 [Example 182, 5-((bis(pyridin-2-ylmethyl)amino)methyl)-N-methyl-N-((2S,3R,4R,5R)-2,3,4,5,6-pentahydroxyhexyl)thiophene-2-carboxamide]
adjuvant effect at an inhibitor concentration of 25 mg/L [2]: completely abolishes the adjuvant effect

CN(C[C@H](O)[C@@H](O)[C@H](O)[C@H](O)CO)C(=O)c1ccc(CN(Cc2ccccc2)Cc2ccccc2)nc1 [Example 185, 6-((dibenzylamino)methyl)-N-methyl-N-((2S,3R,4R,5R)-2,3,4,5,6-pentahydroxyhexyl)nicotinamide]
adjuvant effect at an inhibitor concentration of 25 mg/L [2]: completely abolishes the adjuvant effect

CN(C[C@H](O)[C@@H](O)[C@H](O)[C@H](O)CO)C(=O)c1ccc(CN(Cc2ccccc2)Cc2ccccn2)nc1 [Example 187, 6-((benzyl(pyridin-2-ylmethyl)amino)methyl)-N-methyl-N-((2S,3R,4R,5R)-2,3,4,5,6-pentahydroxyhexyl)nicotinamide]
adjuvant effect at an inhibitor concentration of 25 mg/L [2]: completely abolishes the adjuvant effect

C[C@@H](N)C(=O)N[C@H](C)C(=O)NCCc1ccc(NC(=O)c2ccc(CN(Cc3ccccn3)Cc3ccccn3)nc2)cc1 [Example 195, N-(4-(2-((R)-2-((R)-2-aminopropanamido)propanamido)ethyl)phenyl)-6-((bis(pyridin-2-ylmethyl)amino)methyl)nicotinamide hydrochloride]
storage time after which the activity was absent [3]: 8 months | storage time at which a loss of activity was observed [3]: 5 months | MIC meropenem + 25 mg/L Example 195 (K. pneumoniae (VIM)): 0.125 µg/mL | MIC meropenem + 25 mg/L Example 195 (P. stuartii (NDM)): 0.25 µg/mL | MIC meropenem + 25 mg/L Example 195 (E. coli (VIM-1)): <0.03 µg/mL | MIC meropenem + 25 mg/L Example 195 (E. cloacae (VIM)): <0.03 µg/mL | MIC meropenem + 25 mg/L Example 195 (K. pneumoniae (NDM-7)): <0.03 µg/mL | MIC meropenem + 25 mg/L Example 195 [4]: 1 µg/mL | MIC meropenem + 25 mg/L Example 195 (K. pneumoniae (NDM)): 0.06 µg/mL | MIC meropenem + 25 mg/L Example 195 (P. mirabilis (NDM-1)): 0.125 µg/mL | MIC meropenem + 25 mg/L Example 195 (C. freundii (NDM-1)): 0.125 µg/mL | MIC meropenem + 25 mg/L Example 195 (C. freundii (NDM)): 0.06 µg/mL | MIC meropenem + 25 mg/L Example 195 (P. stuartii (NDM-1)): 0.125 µg/mL | Relative weight of mice ([5]; Day 1, treatment 4 mg/kg intraperitoneally): 100 ± 0% | Relative weight of mice ([5]; Day 8, treatment 8 mg/kg): 98 ± 5% | Relative weight of mice ([5]; Day 16, treatment 16 mg/kg): 103 ± 3% | Relative weight of mice ([5]; Day 22, treatment 32 mg/kg): 103 ± 3% | Relative weight of mice ([5]; Day 29, treatment 64 mg/kg): 106 ± 6% | Relative weight of mice ([5]; Day 36, treatment 120 mg/kg): 110 ± 8% | Relative weight of mice ([5]; Day 43, no injection, reporting): 110 ± 8% | MIC ([6]; Klebsiella pneumoniae, read-out: MIC of MEM in the presence of inhibitor): 0.125 µg/mL | RF - no of colonies (K. pneumoniae K66-45): 163 colonies | IC50 (human hepG2 cells; Homo sapiens, HepG2, 24 h): > 1000 µM

c1ccc(CN(CCN(Cc2ccccn2)Cc2ccccn2)Cc2ccccn2)nc1 [TPEN, N,N,N′,N′-tetrakis(2-pyridylmethyl) ethylenediamine, reference compound]
EC50 (neurons): ~5 µM | MICx [1]: 15 µM | Meropenem activity in presence of inhibitor [7]: 64 mg/L | Meropenem activity in presence of inhibitor [8]: ≤0.5 mg/L | Meropenem activity in presence of inhibitor [9]: ≤0.064 mg/L | Meropenem activity in presence of inhibitor ([6]; inhibitor 63 mg/L, K. pneumoniae K66-45 NDM-1): ≤0.5 mg/L | Meropenem activity in presence of inhibitor [10]: 1 mg/L | irreversibility of VIM-2 inhibition (VIM-2): irreversibly inhibited | IC50 (human hepG2 cells; human hepG2 cells, 24 hours, AlamarBlue, 8 replicates, read-out: IC50): 7.1 µM | IC50 (human hepG2 cells; human hepG2 cells, read-out: IC50h): 7 µM
